1 cell line from the supplement of paper PMC10307832 can be followed below.

Common to all, as to assay: relative viability (nuclei count vs DMSO), 5 days (fraction); higher = more cells survive
Compound in assay [1]: CC(C)C[C@@H](C(=O)N[C@H](C(=O)OC1CCCC1)c1ccccc1)[C@H](O)C(=O)NO [Tosedostat] + C[C@]1(O)C[C@@H](c2nc(-c3ccc4ccc(-c5ccccc5)nc4c3)c3c(N)nccn32)C1 [Linsitinib] (partner 1 µM)
The procedure, abridged:
(§1)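 Relative viability divides the nuclei count in treated wells by that in vehicle wells. Lung cancer cell lines were seeded in 1536-well plates, dosed by pin tool the next day, and fixed and stained after 5 days in one step with final 0.05% Triton X-100, 1% formaldehyde and 1 ug/ml Hoechst. Dosing was a single drug or a fixed anchor-drug dose plus five library-drug doses (not always all listed) in √10 steps, and values are medians of duplicate plates imaged at 4×.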

Compound in assay [2]: CC1=NN=C(O1)C2=NN=C(C=C2)N3CCC(CC3)OC4=C(C=CC(=C4)F)Cl + CC(=O)Nc1cccc(-n2c(=O)n(C3CC3)c(=O)c3c(Nc4ccc(I)cc4F)n(C)c(=O)c(C)c32)c1 [Trametinib] (partner 0.02 µM)
In a few lines: as §1

Compound in assay [3]: CC(C)C[C@@H](C(=O)N[C@H](C(=O)OC1CCCC1)c1ccccc1)[C@H](O)C(=O)NO [Tosedostat] + O=C(c1cc(Cc2n[nH]c(=O)c3ccccc23)ccc1F)N1CCN(C(=O)C2CC2)CC1 [Olaparib] (partner 8 µM)
The procedure, abridged:
as §1

Compound in assay [4]: CC1=NN=C(O1)C2=NN=C(C=C2)N3CCC(CC3)OC4=C(C=CC(=C4)F)Cl + N=C(N)NC(=N)NCCc1ccccc1 [Phenformin] (partner 250 µM)
The procedure, abridged:
as §1

For the cell line UMC-11, the relative viability in assay [1] (first compound 0.02 µM) stood at 0.995; in assay [1] (first compound 0.06325 µM), 1.08; in assay [1] (first compound 0.2 µM), 0.951; in assay [1] (first compound 0.6325 µM), 0.898; in assay [1] (first compound 2 µM) it was 0.976; in assay [2] (first compound 0.253 µM), 0.457. Besides, the relative viability was determined as 0.531 in assay [2] (first compound 0.8 µM); 0.33 in assay [2] (first compound 2.53 µM); 0.43 in assay [2] (first compound 8 µM); 0.374 in assay [3] (first compound 0.02 µM); 0.336 in assay [3] (first compound 0.06325 µM); 0.287 in assay [3] (first compound 0.2 µM). Besides, the relative viability in assay [3] (first compound 0.6325 µM) stood at 0.273; in assay [3] (first compound 2 µM), 0.327; in assay [4] (first compound 0.253 µM), 0.288; in assay [4] (first compound 0.8 µM), 0.291; in assay [4] (first compound 2.53 µM), 0.263; in assay [4] (first compound 8 µM), 0.263.
